Results from US20080227866A1, “Hydroxyphenylalkadiones and Their Use for Masking Bitter Taste and/or for Intensifying Sweet Taste” (SYMRISE GMBH & CO. KG, priority 2005, published 2008).

Tests used:
[1] = Bitterness reduction in a bitter principle solution, rated by a group of experts (caffeine); format: in vivo; conditions: 100 ppm substance in aqueous 500 ppm caffeine; for % reduction in the bitter impression: calculated from the average panel values; for Bitter impression (1-10) with: panel mean ± 95% confidence interval
Method: In order to quantify the reduction in the bitter impression, the bitterness of an aqueous bitter principle solution and of a sample which contained the same amount of bitter principle and a varying amount of the compound given by way of example was determined by a group of experts ([…]). The evaluation was made as a calculation of the reduction (in %) of the bitter impression from the average values of the estimations of the bitter principle solution and of the solutions containing bitter principle and compound given by way of example. 2,4-Dihydrobenzoic acid (2,4-DHB) was used as a comparison from U.S. Pat. No. 5,643,941. HED means homoeriodictyol sodium salt according to EP 1 258 200 B1.
(§1) Table: Bitterness of a bitter principle solution and of a solution containing bitter principle and a compound given by way of example (2,4-DHB=2,4-dihydroxybenzoic acid, HED=homoeriodictyol sodium salt according to EP 1 258 200 B1). “Testers positive” means the number of testers who were able to detect masking; the 95% confidence intervals are stated as errors; p<x means the significance according to the Student t test method (cf. statistics textbooks), n.s. means not significant.

[2] = Bitterness reduction in a bitter principle solution, rated by a group of experts (quinine hydrochloride); format: in vivo; conditions: 100 ppm substance in aqueous 5 ppm quinine hydrochloride
Method: In order to quantify the reduction in the bitter impression, the bitterness of an aqueous bitter principle solution and of a sample which contained the same amount of bitter principle and a varying amount of the compound given by way of example was determined by a group of experts (classification 0 [not bitter] to 10 [extremely bitter]). The evaluation was made as a calculation of the reduction (in %) of the bitter impression from the average values of the estimations of the bitter principle solution and of the solutions containing bitter principle and compound given by way of example. 2,4-Dihydrobenzoic acid (2,4-DHB) was used as a comparison from U.S. Pat. No. 5,643,941. HED means homoeriodictyol sodium salt according to EP 1 258 200 B1.
as §1

[3] = Intensification of the sweet impression of a sucrose solution, rated by a group of experts; format: in vivo; conditions: 100 ppm test compound in 5 wt. % sucrose; for % intensification of the sweet impression: calculated from the average panel values; for Sweet impression (1-10) of a 5% strength sucrose solution with Test substance: panel mean ± standard deviation; for number of testers who found the test solution sweeter: second figure in brackets (total/positive)
Method: In order to quantify the intensification of the sweet impression, the sweetness of a solution containing 5 wt. % of sucrose and of a sample which contained 5 wt. % of sucrose and 100 ppm of the test compound was determined by a group of experts (classification 0 [not sweet] to 10 [extremely sweet]). The evaluation was made as a calculation of the intensification (in %) of the sweet impression from the average values of the estimations of the sucrose solution and of the solution containing sucrose and compound 2.
Table: Sweetness (a) of a sucrose solution and (b) of a solution containing sucrose and test substance; the standard deviations are stated as errors. In the last column, the total number of testers is stated against the number of testers who found the test solution sweeter.

[4] = described in DE 2 161,528; cited from earlier work

SMILES | Testers positive (number of testers who were able to detect masking) [1] | % reduction in the bitter impression [1] | Bitter impression (1-10) with [1] | Testers positive (number of testers who were able to detect masking) [2] | % reduction in the bitter impression ([2]; calculated from the average panel values) | Bitter impression (1-10) with ([2]; panel mean ± 95% confidence interval) | % intensification of the sweet impression [3] | Sweet impression (1-10) of a 5% strength sucrose solution with Test substance [3] | number of testers who found the test solution sweeter [3] | antihypertensive action [4]
O=C(O)c1ccc(O)cc1O [2,4-DHB, 2,4-dihydroxybenzoic acid, reference compound] | 9 | 3%, n.s. | 5.0 ± 1.0 |  |  |  |  |  |  | 
COc1cc(/C=C/C(=O)CC(C)=O)ccc1O [compound 1, (5E)-6-(4-hydroxy-3-methoxyphenyl)hex-5-ene-2,4-dione] | 9 | 21%, | 5.1 ± 1.0 |  |  |  |  |  |  | 
COc1cc(CCC(=O)CC(C)=O)ccc1O [compound 4, 6-(4-hydroxy-3-methoxyphenyl)hexane-2,4-dione] | 15 | 34%, | 3.9 ± 0.8 | 10 | 21%, | 1.3 ± 0.8 | +13% | 5.3 ± 1.6 | 9 | 
COc1cc(CCC(=O)C2C(=O)CCC2=O)ccc1O [compound 9, 2-(3-[4-hydroxy-3-methoxyphenyl]propionyl)-cyclopentane-1,3-dione] |  |  |  |  |  |  |  |  |  | weak antihypertensive agent
COc1ccc(/C=C/C(=O)CC(C)=O)cc1O [compound 10, (5E)-6-(3-Hydroxy-4-methoxyphenyl)hex-5-ene-2,4-dione] | 12 | 23% | 4.6 ± 0.9 |  |  |  |  |  |  | 
COc1ccc(CCC(=O)CC(C)=O)cc1O [compound 11, 6-(3-hydroxy-4-methoxyphenyl)hexane-2,4-dione] | 11 | 17%, n.s. | 4.2 ± 0.8 |  |  |  | +28% | 6.6 ± 1.2 | 13 | 
